Each structure is given as a SMILES string.

This note sets out measurements from ChEMBL document CHEMBL1250437, “Callyaerins A-F and H, new cytotoxic cyclic peptides from the Indonesian marine sponge Callyspongia aerizusa” (Bioorg Med Chem, 2010).

The test system of one data set is L5178Y. The data set is described as follows: Cytotoxicity against mouse L5178Y cells. Type of data set: functional. To be noted: read-out: ED50 (the source's name).
Another data set relates to Staphylococcus aureus. The data set is described as follows: Antimicrobial activity against Staphylococcus aureus at 5 to 10 uL. In kind it is functional.
In a further data set the test system is Bacillus subtilis. The data set is described as follows: Antimicrobial activity against Bacillus subtilis at 5 to 10 uL. Type of data set: functional.
The test system of the next data set is Escherichia coli. As to the kind of experiment: Antimicrobial activity against Escherichia coli at 5 to 10 uL. In kind it is functional.
Another data set deals with Candida albicans. The data set is described as follows: Antimicrobial activity against Candida albicans at 5 to 10 uL. Type of data set: functional.
The next data set concerns HeLa. As to the kind of experiment: Cytotoxicity against human HeLa cells. Type of data set: functional. The following applies: read-out: ED50 (the source's name).
A further data set concerns PC-12. As to the kind of experiment: Cytotoxicity against rat PC12 cells. In kind it is functional. The following applies: read-out: ED50 (the source's name).
Data set [1] in a line: Toxicity in brine shrimp assessed as mortality at 20 ug/ml. In kind it is organism-based. The following applies: artemia, in vivo; read-out: Activity.
Data set [2] can be described thus: Toxicity in brine shrimp assessed as mortality at 50 ug/ml. Type of data set: organism-based. To be noted: artemia, in vivo; read-out: Activity.

On to `CC[C@@H](C)[C@@H]1NC(=O)[C@H](C(C)C)NC(=O)[C@@H]2C[C@@H](O)CN2C(=O)[C@H]([C@@H](C)CC)N/C=C(\C(=O)N2CCC[C@H]2C(=O)N[C@H](C(=O)N[C@@H](Cc2ccccc2)C(=O)NCC(N)=O)[C@@H](C)CC)NC(=O)[C@H](CC(C)C)NC(=O)[C@@H]2CCCN2C(=O)[C@@H]2CCCN2C(=O)[C@H](CC(C)C)NC1=O` [CALLYAERIN A], for which the EC50 in the data set on L5178Y came out at 3.61 µM. Also, the “inhibition zone (IZ)” value with Staphylococcus aureus is 9 mm; in the data set with Bacillus subtilis, 0 mm; in the data set on Escherichia coli it was 10 mm; in the data set with Candida albicans, 25 mm.

Take `CC[C@@H](C)[C@@H]1NC(=O)[C@H]([C@@H](C)CC)NC(=O)[C@@H]2C[C@@H](O)CN2C(=O)[C@H]([C@H](C)CC)N/C=C(\C(=O)N2CCC[C@H]2C(=O)N[C@H](C(=O)N[C@H](C(=O)O)[C@@H](C)CC)[C@@H](C)CC)NC(=O)[C@H](CC(C)C)NC(=O)[C@@H]2CCCN2C(=O)[C@@H]2CCCN2C(=O)[C@H](CC(C)C)NC1=O` [CALLYAERIN B]: the results for the EC50 with L5178Y, in the data set on HeLa and in the data set on PC-12 were 4.14 µM, above 8 µM and above 8 µM, respectively. Also, the mortality at 20 ug/ml in data set [1] was found to be 15%. Moreover, the mortality at 50 ug/ml in data set [2] is 35%. Also, the “inhibition zone (IZ)” value worked out at 11 mm with Staphylococcus aureus, 0 mm with Bacillus subtilis, 7 mm in the data set on Escherichia coli and 15 mm with Candida albicans.

Turning to `CC[C@@H]1NC(=O)[C@@H]2C[C@@H](O)CN2C(=O)[C@@H]2CCCN2C(=O)[C@H](Cc2ccccc2)NC(=O)[C@H]([C@H](C)CC)NC(=O)[C@H]([C@H](C)CC)N/C=C(\C(=O)N2CCC[C@H]2C(=O)N[C@H](C(=O)N[C@@H](CC(N)=O)C(=O)N[C@@H](C)C(=O)N[C@H](C(=O)O)[C@@H](C)CC)[C@@H](C)CC)NC(=O)[C@H](CC(C)C)NC1=O` [CALLYAERIN D], the EC50 in the data set with L5178Y stood at 3.03 µM. Moreover, the “inhibition zone (IZ)” value is listed as 0 mm with Staphylococcus aureus, 12 mm in the data set with Bacillus subtilis, 0 mm with Escherichia coli and 0 mm in the data set on Candida albicans.

With `CC[C@H](C)[C@H](NC(=O)[C@@H](NC(=O)[C@@H]1CCCN1C(=O)/C1=C/N[C@@H](CC(C)C)C(=O)N2CCC[C@H]2C(=O)N[C@@H](Cc2ccccc2)C(=O)N[C@@H](Cc2ccccc2)C(=O)N2CCC[C@H]2C(=O)N2CCC[C@H]2C(=O)N[C@@H](C(C)C)C(=O)N1)[C@@H](C)CC)C(=O)NCC(=O)O` [CALLYAERIN E], the figures for the EC50 in the data set on L5178Y, with HeLa and in the data set with PC-12 were 0.39 µM, 3.4 µM and 3.8 µM, respectively. Besides, in data set [1], the mortality at 20 ug/ml came out at 45%. For the same compound, the mortality at 50 ug/ml in data set [2] was 70%. The “inhibition zone (IZ)” value in the data set on Staphylococcus aureus amounted to 9 mm; in the data set with Bacillus subtilis, 15 mm; with Escherichia coli it was 9 mm; in the data set on Candida albicans it was 20 mm.

Consider `CC[C@H](C)[C@H](NC(=O)[C@H](Cc1ccccc1)NC(=O)[C@H](CC(C)C)NC(=O)[C@@H]1CCCN1C(=O)/C1=C\N[C@@H](C(C)C)C(=O)N2CCC[C@H]2C(=O)N[C@@H](C(C)C)C(=O)N[C@@H](Cc2ccccc2)C(=O)N2CCC[C@H]2C(=O)N1)C(=O)O` [CALLYAERIN F], for which the EC50 in the data set on L5178Y, in the data set on HeLa and with PC-12 was above 9 µM each time. The “inhibition zone (IZ)” value in the data set with Staphylococcus aureus, in the data set with Bacillus subtilis, with Escherichia coli and in the data set on Candida albicans was 0 mm throughout.

With `CC(C)C[C@@H]1NC(=O)[C@@H]2CCCN2C(=O)[C@H]2CCCN2C(=O)[C@@H]2CCCN2C(=O)[C@@H]2CCCN2C(=O)[C@H](CC(C)C)N/C=C(\C(=O)N2CCC[C@H]2C(=O)N[C@@H](Cc2ccccc2)C(=O)N[C@@H](Cc2ccccc2)C(=O)N[C@@H](Cc2ccccc2)C(=O)O)NC1=O` [CALLYAERIN G], the EC50 in the data set on L5178Y was 0.41 µM; in the data set on HeLa, 4.43 µM; in the data set with PC-12 it was above 8 µM.

Turning to `CC[C@H](C)[C@H](NC(=O)[C@@H]1CCCN1C(=O)/C1=C\N[C@@H](C(C)C)C(=O)N2CCC[C@H]2C(=O)N[C@@H](C(C)C)C(=O)N[C@@H](Cc2ccccc2)C(=O)N2CCC[C@H]2C(=O)N2CCC[C@H]2C(=O)N[C@@H](CC(C)C)C(=O)N1)C(=O)O` [CALLYEARIN H], in the data set with L5178Y, the EC50 was found to be 0.48 µM. Besides, the mortality at 20 ug/ml in data set [1] was determined as 30%. Further, the mortality at 50 ug/ml in data set [2] is 55%.
